Test results taken from PubChem BioAssay (NCI).
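48-hour exposure; five concentrations; linearly interpolated endpoints. The concentration for 50% growth inhibition is given as GI50. TGI denotes the concentration required for complete inhibition of growth.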

Experiments:
Test in all cases: NCI anticancer screen, dose series, 48 h
786-0 renal = test system: 786-0 renal
A498 renal = test system: A498 renal
A549 NSCLC = test system: A549 NSCLC
ACHN renal = test system: ACHN renal
CAKI-1 renal = test system: CAKI-1 renal
CCRF-CEM leukemia = test system: CCRF-CEM leukemia
COLO 205 colon = test system: COLO 205 colon
DU-145 prostate = test system: DU-145 prostate
EKVX NSCLC = test system: EKVX NSCLC
HCC-2998 colon = test system: HCC-2998 colon
HCT-116 colon = test system: HCT-116 colon
HCT-15 colon = test system: HCT-15 colon
HL-60(TB) leukemia = test system: HL-60(TB) leukemia
HOP-62 NSCLC = test system: HOP-62 NSCLC
HOP-92 NSCLC = test system: HOP-92 NSCLC
HS 578T breast = test system: HS 578T breast
HT29 colon = test system: HT29 colon
IGROV1 ovarian = test system: IGROV1 ovarian
K-562 leukemia = test system: K-562 leukemia
KM12 colon = test system: KM12 colon
LOX IMVI melanoma = test system: LOX IMVI melanoma
M14 melanoma = test system: M14 melanoma
MALME-3M melanoma = test system: MALME-3M melanoma
MCF7 breast = test system: MCF7 breast
MDA-MB-231 breast = test system: MDA-MB-231 breast
MDA-MB-435 = test system: MDA-MB-435
MOLT-4 leukemia = test system: MOLT-4 leukemia
NCI-H226 lung = test system: NCI-H226 lung
NCI-H460 lung = test system: NCI-H460 lung
NCI-H522 lung = test system: NCI-H522 lung
NCI/ADR-RES ovarian = test system: NCI/ADR-RES ovarian
OVCAR-3 ovarian = test system: OVCAR-3 ovarian
OVCAR-4 ovarian = test system: OVCAR-4 ovarian
OVCAR-5 ovarian = test system: OVCAR-5 ovarian
PC-3 prostate = test system: PC-3 prostate
RPMI-8226 leukemia = test system: RPMI-8226 leukemia
RXF 393 renal = test system: RXF 393 renal
SF-268 CNS = test system: SF-268 CNS
SF-295 CNS = test system: SF-295 CNS
SF-539 CNS = test system: SF-539 CNS
SK-MEL-2 melanoma = test system: SK-MEL-2 melanoma
SK-MEL-28 melanoma = test system: SK-MEL-28 melanoma
SK-OV-3 ovarian = test system: SK-OV-3 ovarian
SN12C renal = test system: SN12C renal
SNB-19 CNS = test system: SNB-19 CNS
SNB-75 CNS = test system: SNB-75 CNS
SR leukemia = test system: SR leukemia
SW-620 colon = test system: SW-620 colon
T-47D breast = test system: T-47D breast
TK-10 renal = test system: TK-10 renal
U251 CNS = test system: U251 CNS
UACC-257 melanoma = test system: UACC-257 melanoma
UACC-62 melanoma = test system: UACC-62 melanoma
UO-31 renal = test system: UO-31 renal

Question: Which results are given for `NC(=O)c1cc(-c2ccc3ncnc(N4CCc5cc(F)c(Cl)cc54)c3c2)cnc1N`?
Answer: GI50 (786-0 renal): 1.19 µM; TGI (786-0 renal): 10.4 µM; GI50 (A498 renal): 0.336 µM; TGI (A498 renal): 2.46 µM; GI50 (A549 NSCLC): 1.05 µM; TGI (A549 NSCLC): 13.4 µM; GI50 (ACHN renal): 0.801 µM; TGI (ACHN renal): 17 µM; GI50 (CAKI-1 renal): 0.529 µM; TGI (CAKI-1 renal): 17 µM; GI50 (CCRF-CEM leukemia): 2.95 µM; TGI (CCRF-CEM leukemia): 34.8 µM; GI50 (COLO 205 colon): 2.7 µM; TGI (COLO 205 colon): 21.4 µM; GI50 (DU-145 prostate): 1.79 µM; TGI (DU-145 prostate): 27.4 µM; GI50 (EKVX NSCLC): 0.806 µM; TGI (EKVX NSCLC): 15.3 µM; GI50 (HCC-2998 colon): 1.68 µM; TGI (HCC-2998 colon): 7.09 µM; GI50 (HCT-116 colon): 1.22 µM; TGI (HCT-116 colon): 2.81 µM; GI50 (HCT-15 colon): 2.02 µM; TGI (HCT-15 colon): > 100 µM; GI50 (HL-60(TB) leukemia): 0.573 µM; TGI (HL-60(TB) leukemia): 6.18 µM; GI50 (HOP-62 NSCLC): 1.37 µM; TGI (HOP-62 NSCLC): 7.22 µM; GI50 (HOP-92 NSCLC): 0.231 µM; TGI (HOP-92 NSCLC): 2.63 µM; GI50 (HS 578T breast): 0.839 µM; TGI (HS 578T breast): 7.65 µM; GI50 (HT29 colon): 1.14 µM; TGI (HT29 colon): 9.76 µM; GI50 (IGROV1 ovarian): 0.279 µM; TGI (IGROV1 ovarian): 1.62 µM; GI50 (K-562 leukemia): 3.35 µM; TGI (K-562 leukemia): > 100 µM; GI50 (KM12 colon): 2.33 µM; TGI (KM12 colon): 10.9 µM; GI50 (LOX IMVI melanoma): 1.69 µM; TGI (LOX IMVI melanoma): 12.3 µM; GI50 (M14 melanoma): 2.84 µM; TGI (M14 melanoma): 41.4 µM; GI50 (MALME-3M melanoma): 1.51 µM; TGI (MALME-3M melanoma): 15.2 µM; GI50 (MCF7 breast): 0.317 µM; TGI (MCF7 breast): 2.15 µM; GI50 (MDA-MB-231 breast): 2.02 µM; TGI (MDA-MB-231 breast): 16.2 µM; GI50 (MDA-MB-435): 2.3 µM; TGI (MDA-MB-435): > 100 µM; GI50 (MOLT-4 leukemia): 1.25 µM; TGI (MOLT-4 leukemia): 6.23 µM; GI50 (NCI-H226 lung): 3.04 µM; TGI (NCI-H226 lung): 33.1 µM; GI50 (NCI-H460 lung): 1.3 µM; TGI (NCI-H460 lung): 3.96 µM; GI50 (NCI-H522 lung): 1.55 µM; TGI (NCI-H522 lung): 4.72 µM; GI50 (NCI/ADR-RES ovarian): 3.22 µM; TGI (NCI/ADR-RES ovarian): > 100 µM; GI50 (OVCAR-3 ovarian): 1.67 µM; TGI (OVCAR-3 ovarian): 10 µM; GI50 (OVCAR-4 ovarian): 1.28 µM; TGI (OVCAR-4 ovarian): 2.95 µM; GI50 (OVCAR-5 ovarian): 1.82 µM; TGI (OVCAR-5 ovarian): 47.9 µM; GI50 (PC-3 prostate): 0.976 µM; TGI (PC-3 prostate): 5.27 µM; GI50 (RPMI-8226 leukemia): 1.39 µM; TGI (RPMI-8226 leukemia): 11.3 µM; GI50 (RXF 393 renal): 0.656 µM; TGI (RXF 393 renal): 2.59 µM; GI50 (SF-268 CNS): 1.88 µM; TGI (SF-268 CNS): 49.8 µM; GI50 (SF-295 CNS): 1.47 µM; TGI (SF-295 CNS): 4.26 µM; GI50 (SF-539 CNS): 1.49 µM; TGI (SF-539 CNS): 3.56 µM; GI50 (SK-MEL-2 melanoma): 1.54 µM; TGI (SK-MEL-2 melanoma): 4.02 µM; GI50 (SK-MEL-28 melanoma): 2.67 µM; TGI (SK-MEL-28 melanoma): 28.5 µM; GI50 (SK-OV-3 ovarian): 1.09 µM; TGI (SK-OV-3 ovarian): 4.18 µM; GI50 (SN12C renal): 1.03 µM; TGI (SN12C renal): 25 µM; GI50 (SNB-19 CNS): 1.82 µM; TGI (SNB-19 CNS): > 100 µM; GI50 (SNB-75 CNS): 0.524 µM; TGI (SNB-75 CNS): 5.8 µM; GI50 (SR leukemia): 1.87 µM; TGI (SR leukemia): 16.2 µM; GI50 (SW-620 colon): 2.41 µM; TGI (SW-620 colon): 19.4 µM; GI50 (T-47D breast): 0.273 µM; TGI (T-47D breast): 2.36 µM; GI50 (TK-10 renal): 0.519 µM; TGI (TK-10 renal): 27.9 µM; GI50 (U251 CNS): 2.44 µM; TGI (U251 CNS): 18.8 µM; GI50 (UACC-257 melanoma): 2.83 µM; TGI (UACC-257 melanoma): > 100 µM; GI50 (UACC-62 melanoma): 1.62 µM; TGI (UACC-62 melanoma): 18.3 µM; GI50 (UO-31 renal): 0.311 µM; TGI (UO-31 renal): 10.6 µM
